One may read the IC50 as the concentration that gives 50% inhibition.

For assay [1], the target named is Phosphatidylinositol 4,5-bisphosphate 3-kinase catalytic subunit gamma isoform (Mus musculus, UniProt Q9JHG7). Description: Inhibition of PI3Kgamma in C5a-stimulated mouse RAW 264 cells assessed as inhibition of AKT phosphorylation at Ser473 residue Pretreated for 15 mins followed by C5a stimulation measured after 3 mins by HTRF assay. Type of assay: cell-based. In general terms: Time-resolved FRET reads energy transfer from a long-lived donor to a nearby acceptor.

Assay [2] concerns the target T1, Phosphatidylinositol 4,5-bisphosphate 3-kinase catalytic subunit delta isoform (Homo sapiens, UniProt O00329).
T1 sequence (O00329 whole entry): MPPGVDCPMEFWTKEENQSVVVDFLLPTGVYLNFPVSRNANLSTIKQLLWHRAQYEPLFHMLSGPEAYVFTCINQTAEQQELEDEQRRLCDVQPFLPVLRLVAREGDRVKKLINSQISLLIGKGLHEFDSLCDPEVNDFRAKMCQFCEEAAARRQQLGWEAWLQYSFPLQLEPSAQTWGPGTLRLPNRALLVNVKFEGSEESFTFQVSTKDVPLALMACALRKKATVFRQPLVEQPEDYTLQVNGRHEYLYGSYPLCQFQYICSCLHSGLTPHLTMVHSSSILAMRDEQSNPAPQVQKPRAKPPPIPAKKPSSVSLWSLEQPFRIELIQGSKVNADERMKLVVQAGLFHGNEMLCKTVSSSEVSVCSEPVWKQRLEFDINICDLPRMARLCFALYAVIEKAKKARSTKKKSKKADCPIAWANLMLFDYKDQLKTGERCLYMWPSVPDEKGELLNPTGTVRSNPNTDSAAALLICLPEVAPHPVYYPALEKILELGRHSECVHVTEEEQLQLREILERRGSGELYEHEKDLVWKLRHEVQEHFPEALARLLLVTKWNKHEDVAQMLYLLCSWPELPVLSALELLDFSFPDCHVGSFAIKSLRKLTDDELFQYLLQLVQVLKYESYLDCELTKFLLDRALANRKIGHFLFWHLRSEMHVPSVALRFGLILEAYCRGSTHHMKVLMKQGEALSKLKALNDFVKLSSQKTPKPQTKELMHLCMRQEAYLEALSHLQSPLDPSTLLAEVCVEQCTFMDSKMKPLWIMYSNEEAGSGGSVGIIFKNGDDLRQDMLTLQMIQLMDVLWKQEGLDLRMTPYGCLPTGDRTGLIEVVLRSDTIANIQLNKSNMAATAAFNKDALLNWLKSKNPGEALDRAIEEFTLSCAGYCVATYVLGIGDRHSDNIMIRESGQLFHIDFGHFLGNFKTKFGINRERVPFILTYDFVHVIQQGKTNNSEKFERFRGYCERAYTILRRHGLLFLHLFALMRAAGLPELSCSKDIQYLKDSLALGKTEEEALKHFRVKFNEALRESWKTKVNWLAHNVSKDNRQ
Description: Inhibition of PI3Kdelta in anti-IgM-stimulated human JeKo-1 cells assessed as inhibition of AKT phosphorylation at Ser473 residue incubated for 60 mins by TR-FRET assay.

Assay [3] addresses Phosphatidylinositol 4,5-bisphosphate 3-kinase catalytic subunit alpha isoform (Homo sapiens, UniProt P42336). Description: Inhibition of recombinant human PI3Kalpha assessed as reduction in ADP production using Dic8-PIP2 as substrate pre-treated for 15 mins followed by substrate addition measured after 60 mins by ADP-glo assay. A general note: In ADP-Glo the light output rises with the ADP produced.

The target in assay [4] is T1, Phosphatidylinositol 4,5-bisphosphate 3-kinase catalytic subunit delta isoform. Description: Inhibition of recombinant human PI3Kdelta assessed as reduction in ADP production using Dic8-PIP2 as substrate pre-treated for 15 mins followed by substrate addition measured after 60 mins by ADP-glo assay.
For assay [5], the target named is Phosphatidylinositol 4,5-bisphosphate 3-kinase catalytic subunit gamma isoform (Homo sapiens, UniProt P48736). The experiment in a line: Inhibition of recombinant human PI3Kgamma assessed as reduction in ADP production using Dic8-PIP2 as substrate pre-treated for 15 mins followed by substrate addition measured after 60 mins by ADP-glo assay.

Each structure is given as a SMILES string.

Phosphatidylinositol 4,5-bisphosphate 3-kinase catalytic subunit alpha isoform, sequence (P42336 whole entry, canonical isoform): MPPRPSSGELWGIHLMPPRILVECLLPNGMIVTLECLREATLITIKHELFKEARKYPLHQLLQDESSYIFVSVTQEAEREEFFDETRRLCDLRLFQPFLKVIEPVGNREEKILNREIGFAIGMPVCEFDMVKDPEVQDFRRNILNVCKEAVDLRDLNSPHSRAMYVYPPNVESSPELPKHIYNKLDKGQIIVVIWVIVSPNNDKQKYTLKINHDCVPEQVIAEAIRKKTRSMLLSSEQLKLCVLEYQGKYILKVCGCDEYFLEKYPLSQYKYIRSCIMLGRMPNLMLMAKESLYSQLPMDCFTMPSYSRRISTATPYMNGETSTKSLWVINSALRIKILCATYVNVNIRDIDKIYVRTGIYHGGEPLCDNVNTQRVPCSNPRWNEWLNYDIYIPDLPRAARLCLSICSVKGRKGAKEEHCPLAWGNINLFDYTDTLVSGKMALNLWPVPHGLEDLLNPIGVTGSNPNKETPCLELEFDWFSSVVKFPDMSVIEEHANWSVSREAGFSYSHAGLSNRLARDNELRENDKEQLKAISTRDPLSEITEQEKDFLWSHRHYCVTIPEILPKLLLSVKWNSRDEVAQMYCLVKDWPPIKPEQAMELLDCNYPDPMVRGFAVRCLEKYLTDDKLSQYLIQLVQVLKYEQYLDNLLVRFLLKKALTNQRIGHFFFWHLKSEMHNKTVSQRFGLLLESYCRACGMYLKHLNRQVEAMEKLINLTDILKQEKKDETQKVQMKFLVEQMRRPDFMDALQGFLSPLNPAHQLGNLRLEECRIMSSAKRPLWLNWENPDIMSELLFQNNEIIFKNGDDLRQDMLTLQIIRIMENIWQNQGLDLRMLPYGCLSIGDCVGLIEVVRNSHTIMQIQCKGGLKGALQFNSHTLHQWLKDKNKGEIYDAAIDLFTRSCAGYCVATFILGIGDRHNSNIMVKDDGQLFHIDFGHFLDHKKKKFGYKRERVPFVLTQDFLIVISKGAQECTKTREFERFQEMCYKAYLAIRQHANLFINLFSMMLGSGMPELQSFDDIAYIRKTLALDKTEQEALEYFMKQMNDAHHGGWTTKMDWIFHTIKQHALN
Phosphatidylinositol 4,5-bisphosphate 3-kinase catalytic subunit gamma isoform (Homo sapiens, UniProt P48736), sequence (P48736 whole entry, canonical isoform): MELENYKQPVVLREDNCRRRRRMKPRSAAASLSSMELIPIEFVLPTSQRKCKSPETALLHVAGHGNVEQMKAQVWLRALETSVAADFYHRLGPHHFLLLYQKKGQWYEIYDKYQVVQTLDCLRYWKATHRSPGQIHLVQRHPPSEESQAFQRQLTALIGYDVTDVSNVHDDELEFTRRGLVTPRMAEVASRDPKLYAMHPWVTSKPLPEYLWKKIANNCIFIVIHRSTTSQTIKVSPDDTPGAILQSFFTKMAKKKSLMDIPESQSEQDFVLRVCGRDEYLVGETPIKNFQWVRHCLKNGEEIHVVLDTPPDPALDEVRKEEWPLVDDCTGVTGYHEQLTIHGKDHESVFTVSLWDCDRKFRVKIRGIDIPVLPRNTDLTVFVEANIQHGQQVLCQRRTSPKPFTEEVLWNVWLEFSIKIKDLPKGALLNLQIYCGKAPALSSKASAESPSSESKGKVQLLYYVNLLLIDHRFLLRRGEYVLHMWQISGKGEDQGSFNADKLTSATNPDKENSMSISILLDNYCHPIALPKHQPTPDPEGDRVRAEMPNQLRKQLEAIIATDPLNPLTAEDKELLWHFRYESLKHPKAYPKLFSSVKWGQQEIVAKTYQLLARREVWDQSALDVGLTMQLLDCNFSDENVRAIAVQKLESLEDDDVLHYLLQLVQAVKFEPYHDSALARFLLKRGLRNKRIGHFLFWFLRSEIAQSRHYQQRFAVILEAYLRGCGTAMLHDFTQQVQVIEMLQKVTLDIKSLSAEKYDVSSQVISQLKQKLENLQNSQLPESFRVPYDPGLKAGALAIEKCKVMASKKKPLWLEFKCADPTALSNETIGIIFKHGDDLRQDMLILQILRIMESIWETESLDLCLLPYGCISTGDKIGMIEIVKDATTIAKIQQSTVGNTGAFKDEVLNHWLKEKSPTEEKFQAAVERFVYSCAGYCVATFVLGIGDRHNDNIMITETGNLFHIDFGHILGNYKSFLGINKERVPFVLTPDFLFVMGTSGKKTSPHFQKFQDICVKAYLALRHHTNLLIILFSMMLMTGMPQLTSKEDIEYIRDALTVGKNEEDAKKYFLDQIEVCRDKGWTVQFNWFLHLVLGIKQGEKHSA
Phosphatidylinositol 4,5-bisphosphate 3-kinase catalytic subunit gamma isoform (Mus musculus, UniProt Q9JHG7), sequence (Q9JHG7 whole entry, canonical isoform): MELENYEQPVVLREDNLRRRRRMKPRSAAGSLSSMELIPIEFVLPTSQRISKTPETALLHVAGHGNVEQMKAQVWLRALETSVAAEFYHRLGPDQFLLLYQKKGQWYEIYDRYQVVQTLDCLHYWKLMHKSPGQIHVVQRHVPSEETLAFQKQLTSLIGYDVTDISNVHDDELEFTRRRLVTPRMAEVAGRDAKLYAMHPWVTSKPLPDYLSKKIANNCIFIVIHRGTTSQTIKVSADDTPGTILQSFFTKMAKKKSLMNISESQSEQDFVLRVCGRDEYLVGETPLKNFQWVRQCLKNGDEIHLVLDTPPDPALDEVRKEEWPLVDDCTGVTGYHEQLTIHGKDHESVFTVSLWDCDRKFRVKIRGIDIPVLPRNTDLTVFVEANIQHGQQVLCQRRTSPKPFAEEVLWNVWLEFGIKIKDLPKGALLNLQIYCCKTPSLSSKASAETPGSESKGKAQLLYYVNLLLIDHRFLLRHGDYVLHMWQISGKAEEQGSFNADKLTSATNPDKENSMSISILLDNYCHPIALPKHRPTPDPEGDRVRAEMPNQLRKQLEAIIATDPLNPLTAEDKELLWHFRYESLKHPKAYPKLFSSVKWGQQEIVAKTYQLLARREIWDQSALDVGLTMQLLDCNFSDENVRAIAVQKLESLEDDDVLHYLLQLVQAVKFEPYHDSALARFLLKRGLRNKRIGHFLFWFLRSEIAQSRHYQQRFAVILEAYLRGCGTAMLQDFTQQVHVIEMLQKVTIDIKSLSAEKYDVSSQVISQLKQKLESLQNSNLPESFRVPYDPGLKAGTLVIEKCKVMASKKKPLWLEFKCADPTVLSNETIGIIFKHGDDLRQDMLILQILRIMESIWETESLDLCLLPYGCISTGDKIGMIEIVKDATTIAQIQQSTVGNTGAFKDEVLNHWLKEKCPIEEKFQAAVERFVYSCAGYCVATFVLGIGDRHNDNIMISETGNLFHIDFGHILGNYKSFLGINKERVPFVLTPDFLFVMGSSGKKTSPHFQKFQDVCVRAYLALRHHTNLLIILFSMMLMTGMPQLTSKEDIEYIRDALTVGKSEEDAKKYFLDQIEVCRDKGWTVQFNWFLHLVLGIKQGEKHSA

`CNS(=O)(=O)c1cc(-c2sc(Nc3cccc(N4CC[C@@H](O)C4=O)n3)nc2C)cc2c1C(=O)N([C@@H](C)C1CC1)C2`: the figures for the IC50 in assay [1], in assay [2] and in assay [3] were 2.51 nM, 3.98 nM and 15.8 nM, respectively.
For the compound `CNS(=O)(=O)c1cc(-c2sc(Nc3cccc(N4CCNCC4=O)n3)nc2C)cc2c1C(=O)N([C@@H](C)C1CC1)C2`, the IC50 in assay [4] was 0.794 nM; in assay [1], 3.98 nM; in assay [2], 6.31 nM; in assay [3] it was 39.8 nM.
For the compound `Cc1nc(Nc2cccc(-c3nc(C)n(C)n3)n2)sc1-c1cc2c(c(S(C)(=O)=O)c1)C(=O)N([C@@H](C)C1CC1)C2`, the IC50 in assay [5] was 1 nM; in assay [4], 25.1 nM.
With `Cc1nc2sc1-c1cc3c(c(c1)S(=O)(=O)Nc1ccc(cc1)CN(C)CCCCNC(=O)c1cccc(n1)N2)C(=O)N([C@@H](C)C1CC1)C3`, the IC50 is 10 nM in assay [5], 1 nM in assay [4], 5.01 nM in assay [1] and 1 nM in assay [2].
Take `Cc1nc(Nc2cccc(-c3ocnc3CO)n2)sc1-c1cc2c(c(S(C)(=O)=O)c1)C(=O)N([C@@H](C)C1CC1)C2`: the IC50 was 0.631 nM in assay [5] and 2 nM in assay [4].
In the case of `CC(=O)Nc1nc(C)c(-c2cc3c(c(S(=O)(=O)Nc4ccc(CN(C)C)cc4)c2)C(=O)N([C@@H](C)C2CC2)C3)s1`, the IC50 in assay [5] was 2.51 nM; in assay [4] it was 6.31 nM; in assay [2] it was 50.1 nM.
Take `CNS(=O)(=O)c1cc(-c2sc(Nc3cccc(N4CCCOC4=O)n3)nc2C)cc2c1C(=O)N([C@@H](C)C1CC1)C2`: the half-inhibitory concentration (IC50) in assay [4] was 0.631 nM; in assay [1] it was 1 nM; in assay [2], 2.51 nM; in assay [3], 20 nM.
The corresponding values for `Cc1nc(Nc2cccc(N3CCNC3=O)n2)sc1-c1cc2c(c(S(=O)(=O)NC3COC3)c1)C(=O)N([C@@H](C)C1CC1)C2` are 0.631 nM, 2 nM, 3.16 nM and 31.6 nM.
Take `Cc1nc(Nc2cccc(N3CCOCC3=O)n2)sc1-c1cc2c(c(S(C)(=O)=O)c1)C(=O)N([C@@H](C)C1CC1)C2`: the IC50 in assay [3] was 50.1 nM.
Turning to `CC(=O)Nc1nc(C)c(-c2cc3c(c(S(=O)(=O)Nc4ccc(C#N)cc4)c2)C(=O)N([C@@H](C)C2CC2)C3)s1`, the IC50 in assay [5] was 1 nM; in assay [4] it was 158 nM.
Consider `CNS(=O)(=O)c1cc(-c2sc(Nc3cccc(N4C[C@H](O)CC4=O)n3)nc2C)cc2c1C(=O)N([C@@H](C)C1CC1)C2`, for which the IC50 in assay [4] is 1.26 nM; in assay [1], 2 nM; in assay [2], 7.94 nM.
With `CC(=O)Nc1nc(C)c(-c2cc3c(c(S(=O)(=O)Nc4cccc(C#N)c4)c2)C(=O)N([C@@H](C)C2CC2)C3)s1`, the IC50 in assay [4] was 10 nM; in assay [2], 126 nM.
As to `Cc1nc(Nc2cccc(N3CCCCC3=O)n2)sc1-c1cc2c(c(S(C)(=O)=O)c1)C(=O)N([C@@H](C)C1CC1)C2`, the IC50 in assay [4] is 1.26 nM; in assay [1], 1.58 nM; in assay [2] it was 12.6 nM; in assay [3], 31.6 nM.
The corresponding values for `Cc1nc(Nc2cccc(N3CCCOC3=O)n2)sc1-c1cc2c(c(S(C)(=O)=O)c1)C(=O)N([C@@H](C)C1CC1)C2` are 1.26 nM, 1.26 nM, 3.98 nM and 20 nM.
Consider `CC(=O)Nc1cccc(Nc2nc(C)c(-c3cc4c(c(S(C)(=O)=O)c3)C(=O)N([C@@H](C)C3CC3)C4)s2)n1`, for which the IC50 was 1 nM in assay [5] and 15.8 nM in assay [4].
The corresponding values for `CCN(CC)C(=O)c1cccc(Nc2nc(C)c(-c3cc4c(c(S(=O)(=O)NC)c3)C(=O)N([C@@H](C)C3CC3)C4)s2)n1` are 3.16 nM and 158 nM.
`CNS(=O)(=O)c1cc(-c2sc(Nc3cccc(C)n3)nc2C)cc2c1C(=O)N([C@@H](C)C1CC1)C2`: the values for the half-inhibitory concentration (IC50) in assay [5] and in assay [4] were 1 nM and 50.1 nM, respectively.
The corresponding values for `CC(=O)Nc1nc(C)c(-c2cc3c(c(S(=O)(=O)Nc4ccc(S(C)(=O)=O)cc4)c2)C(=O)N([C@@H](C)C2CC2)C3)s1` are 1 nM and 158 nM.
The corresponding values for `CNS(=O)(=O)c1cc(-c2sc(Nc3cccc(C(=O)NCCCN(C)C)n3)nc2C)cc2c1C(=O)N([C@@H](C)C1CC1)C2` are 3.16 nM and 3.98 nM.
The corresponding values for `CNS(=O)(=O)c1cc(-c2sc(Nc3ccc(C(=O)NCCCN(C)C)cn3)nc2C)cc2c1C(=O)N([C@@H](C)C1CC1)C2` are 1.26 nM and 6.31 nM.
Turning to `COCCNC(=O)c1cccc(Nc2nc(C)c(-c3cc4c(c(S(C)(=O)=O)c3)C(=O)N([C@@H](C)C3CC3)C4)s2)n1`, the IC50 is 0.794 nM in assay [5] and 5.01 nM in assay [4].
Regarding `CNS(=O)(=O)c1cc(-c2sc(Nc3cccc(N4CCOCC4=O)n3)nc2C)cc2c1C(=O)N([C@@H](C)C1CC1)C2`, the IC50 in assay [4] was 0.631 nM; in assay [1] it was 0.794 nM; in assay [2], 3.98 nM; in assay [3], 39.8 nM.
In the case of `Cc1nc(-c2cccc(Nc3nc(C)c(-c4cc5c(c(S(C)(=O)=O)c4)C(=O)N([C@@H](C)C4CC4)C5)s3)n2)n(C)n1`, the IC50 is 1 nM in assay [5] and 1.58 nM in assay [4].
The corresponding values for `CC(=O)Nc1nc(C)c(-c2cc3c(c(S(=O)(=O)Nc4ccccc4)c2)C(=O)N([C@@H](C)C2CC2)C3)s1` are 1 nM and 50.1 nM.
Regarding `Cc1nc2sc1-c1cc3c(c(c1)S(=O)(=O)Nc1ccc(cc1)CN(C)CCCNC(=O)c1cccc(n1)N2)C(=O)N([C@@H](C)C1CC1)C3`, the IC50 in assay [5] was 7.94 nM; in assay [4], 0.794 nM; in assay [1] it was 3.98 nM; in assay [2], 1.58 nM.
With `CNS(=O)(=O)c1cc(-c2sc(Nc3cccc(N4CCCCC4=O)n3)nc2C)cc2c1C(=O)N([C@@H](C)C1CC1)C2`, in assay [3], the IC50 is 20 nM.
`CC(=O)Nc1nc(C)c(-c2cc3c(c(S(=O)(=O)N(C)c4cccc(C#N)c4)c2)C(=O)N([C@@H](C)C2CC2)C3)s1`: the IC50 in assay [5] was 0.794 nM; in assay [4], 50.1 nM.
For `CC(=O)Nc1nc(C)c(-c2cc3c(c(S(=O)(=O)Nc4cccc(CN(C)C)c4)c2)C(=O)N([C@@H](C)C2CC2)C3)s1`, the IC50 is 2 nM in assay [5] and 15.8 nM in assay [4].
For `CC(=O)Nc1nc(C)c(-c2cc3c(c(S(=O)(=O)Nc4cc(C#N)cc(S(C)(=O)=O)c4)c2)C(=O)N([C@@H](C)C2CC2)C3)s1`, the IC50 in assay [4] was 25.1 nM.
`CC(=O)Nc1nc(C)c(-c2cc3c(c(S(=O)(=O)Nc4cccc(S(C)(=O)=O)c4)c2)C(=O)N([C@@H](C)C2CC2)C3)s1`: the IC50 is 1.26 nM in assay [5], 3.16 nM in assay [4], 15.8 nM in assay [1] and 31.6 nM in assay [2].
Consider `CC(=O)N(C)c1cccc(Nc2nc(C)c(-c3cc4c(c(S(C)(=O)=O)c3)C(=O)N([C@@H](C)C3CC3)C4)s2)n1`, for which, in assay [4], the IC50 was 1.26 nM.
As to `CNS(=O)(=O)c1cc(-c2sc(Nc3cccc(N(C)C(C)=O)n3)nc2C)cc2c1C(=O)N([C@@H](C)C1CC1)C2`, the results for the IC50 in assay [4], in assay [1] and in assay [2] were 0.794 nM, 1 nM and 6.31 nM, respectively.
Take `CC(=O)Nc1nc(C)c(-c2cc3c(c(S(=O)(=O)N(C)c4ccc(CN(C)C)cc4)c2)C(=O)N([C@@H](C)C2CC2)C3)s1`: the IC50 was 2.51 nM in assay [5] and 25.1 nM in assay [4].

The values are drawn from ChEMBL document CHEMBL5029145, “Discovery of AZD8154, a Dual PI3Kγδ Inhibitor for the Treatment of Asthma” (J Med Chem, 2021).
